Data taken from patent US9375004B2 (Bayer Intellectual Property GmbH, priority 2010, dated 2016).

Test: logP by HPLC on reversed-phase column (EEC Directive 79/831 Annex V.A8)
Conditions: for logP: EEC Directive 79/831 Annex V.A8
[1] = HPLC on reversed-phase column (C 18)
[2] = HPLC on a reversed-phase column (C 18)

SMILES | logP [1] | other results
Cn1nc(C(F)F)c(C(=O)Nc2ccccc2OC(F)(F)C(F)F)c1Cl [compound 30] | 3.31 | –
CC(C)Oc1cccc(-c2cccc(NC(=O)c3c(C(F)F)nn(C)c3Cl)c2)c1 [compound 222] | 4.21 | –
Nc1ccc(F)cc1-c1ccc(C(F)(F)F)cc1 [5-fluoro-4′-(trifluoromethyl)biphenyl-2-amine] | – | chromatographic logP (reversed-phase HPLC column (C 18)): 3.52
Cn1nc(C(F)F)c(C(=O)Nc2cccc(OCc3ccccc3)c2)c1Cl [compound 253] | – | logP [2]: 3.55
Cn1nc(C(F)F)c(C(=O)Nc2ccccc2Sc2ccc(Cl)cc2)c1F [compound 164] | 4.34 | –
CO/N=C(\C)c1ccc(-c2ccccc2NC(=O)c2c(C(F)F)nn(C)c2F)cc1 [compound 129] | 3.78 | –
Cn1nc(C(F)F)c(C(=O)Nc2cccc3c2CCCC3)c1F [compound 56] | 3.08 | –
Cn1nc(C(F)F)c(C(=O)Nc2ccccc2-c2cc(F)cc(F)c2)c1Cl [compound 92] | 3.55 | –
Cn1nc(C(F)F)c(C(=O)Nc2ccc(-c3cc(Cl)cc(Cl)c3)cc2)c1Cl [compound 267] | – | logP [2]: 4.72
CC(C)COc1ccc(-c2cccc(NC(=O)c3c(C(F)F)nn(C)c3F)c2)cc1 [compound 235] | 4.61 | –
Cn1nc(C(F)F)c(C(=O)Nc2ccccc2-c2cccc(Cl)c2Cl)c1Cl [compound 122] | 4.06 | –
CC(C)c1ccc(-c2ccccc2NC(=O)c2c(C(F)F)nn(C)c2F)cc1 [compound 96] | 4.44 | –
CC(C)Oc1cc(NC(=O)c2c(C(F)F)nn(C)c2F)c(Cl)cc1Cl [compound 172] | 4.41 | –
CCC(C)Oc1cc(NC(=O)c2c(C(F)F)nn(C)c2Cl)ccc1C (stereo not drawn) [compound 178] | 4.06 | –
CC(C)Oc1cccc(-c2cccc(NC(=O)c3c(C(F)F)nn(C)c3F)c2)c1 [compound 221] | 3.99 | –
Cc1cccc(NC(=O)c2c(C(F)F)nn(C)c2F)c1CCC(C)(C)C [compound 16] | 4.06 | –
Cn1nc(C(F)F)c(C(=O)Nc2cccc(-c3ccc(C(F)(F)F)cc3)c2)c1Cl [compound 226] | 4.19 | –

SMILES | logP [1] | other results
CCCOc1cccc(NC(=O)c2c(C(F)F)nn(C)c2F)c1 [compound 175] | 3.04 | –
Cn1nc(C(F)F)c(C(=O)Nc2ccccc2Br)c1Cl [compound 44] | 3.13 | –
Cn1nc(C(F)F)c(C(=O)Nc2cccc(Cl)c2SCC(F)(F)F)c1F [compound 39] | 3.73 | –
Cn1nc(C(F)F)c(C(=O)Nc2ccccc2-c2cc(Cl)cc(Cl)c2)c1Cl [compound 128] | 4.31 | –
Cn1nc(C(F)F)c(C(=O)Nc2cccc(-c3ccc(OC(F)(F)F)cc3)c2)c1Cl [compound 244] | – | logP [2]: 4.34
Cn1nc(C(F)F)c(C(=O)Nc2ccccc2OC(F)(F)C(F)F)c1F [compound 29] | 3.08 | –
Cn1nc(C(F)F)c(C(=O)Nc2cccc(Br)c2)c1F [compound 189] | 2.82 | –
CC(C)Oc1ccc(-c2ccccc2NC(=O)c2c(C(F)F)nn(C)c2Cl)cc1 [compound 114] | 4.36 | –
Cn1nc(C(F)F)c(C(=O)Nc2cccc3c2OC(F)(F)O3)c1F [compound 62] | 2.77 | –
Cn1nc(C(F)F)c(C(=O)Nc2ccccc2-c2ccc(F)c(Cl)c2)c1F [compound 102] | 3.60 | –
Cn1nc(C(F)F)c(C(=O)Nc2ccccc2-c2ccc([Si](C)(C)C)cc2)c1F [compound 134] | 4.98 | –
Cn1nc(C(F)F)c(C(=O)Nc2ccc3c(c2)OC(F)(F)O3)c1Cl [compound 198] | 3.11 | –
CC(C)Oc1ccc(-c2cccc(NC(=O)c3c(C(F)F)nn(C)c3Cl)c2)cc1 [compound 224] | 4.19 | –
Cn1nc(C(F)F)c(C(=O)Nc2ccccc2-c2ccc(C(C)(C)C)cc2)c1F [compound 109] | 4.73 | –
Cn1nc(C(F)F)c(C(=O)Nc2cccc(Sc3ccccc3)c2)c1Cl [compound 256] | – | logP [2]: 3.85
Cn1nc(C(F)F)c(C(=O)Nc2cccc(-c3cc(Cl)cc(Cl)c3)c2)c1F [compound 231] | 4.39 | –
